Experimental data as given in patent US20070191627A1, “Stilbene derivatives and their use in medicaments” (priority 2003, published 2007).
Read-outs that look alike come from different tables or passages of the source.

Columns and labels:
DU-145 = experiment: Clonogenic test series (7 d) in DU-145 prostate cancer cells; assay type: cell-based; details: Homo sapiens, DU-145, 168 h
[1] = tested on: HL-60 human promyelocyte leukemia cells; experiment: Growth inhibition assay in HL-60 cells (72 h, cell count); assay type: cell-based; details: for IC50: Homo sapiens
Method: The human promyelocyte leukemia cell line HL-60 was purchased from the ATCC (American Type Culture Collection, Rockville, Md., USA). The cells were cultured in RPMI 1640 medium with 10% heat-inactivated fetal calf serum (FCS) (GIBCO, Grand Island Biological Co., Grand Island, N.Y., USA) and with 1% penicillin/streptomycin in a humidified atmosphere with 5% CO2.
The cell numbers were determined by means of a microcell counter CC-108 (Sysmex, Kobe, Japan). For the tests, cells in the logarithmic growth phase were used.
Logarithmically-growing HL-60 cells were prepared in a density of 0.1×10^6 cells/ml in tissue culture flasks and incubated with various concentrations of the stilbene derivatives to be examined. After 72 hours, the cells were counted by means of the microcell counter. The viability of the cells was determined by means of trypan blue staining. Numbers of viable cells were calculated as results.
After 72 hours, the cells were counted by means of the microcell counter. The viability of the cells was determined by means of trypan blue staining. Numbers of viable cells were calculated as results.

LNCaP = experiment: Clonogenic test series (7 d) in LNCaP prostate cancer cells; assay type: cell-based; details: Homo sapiens, 168 h, LNCaP cells respond to 5-alpha-dihydrotestosterone
PC-3 = experiment: Clonogenic test series (7 d) in PC-3 prostate cancer cells; assay type: cell-based; details: Homo sapiens, PC-3, 168 h
COX 1 = target: T1, COX 1 (Homo sapiens, UniProt P23219); experiment: COX (human) inhibitor screening assay, COX 1; assay type: biochemical
T1 construct: purchased IBL Products Company, Hamburg, Germany

COX 2 = target: T2, COX 2 (Homo sapiens, UniProt P35354); experiment: COX (human) inhibitor screening assay, COX 2; assay type: biochemical; details: for COX2/COX1 Ratio: ratio of COX 2 IC50 to COX 1 IC50
T2 construct: purchased IBL Products Company, Hamburg, Germany
T2 sequence (P35354 18-604): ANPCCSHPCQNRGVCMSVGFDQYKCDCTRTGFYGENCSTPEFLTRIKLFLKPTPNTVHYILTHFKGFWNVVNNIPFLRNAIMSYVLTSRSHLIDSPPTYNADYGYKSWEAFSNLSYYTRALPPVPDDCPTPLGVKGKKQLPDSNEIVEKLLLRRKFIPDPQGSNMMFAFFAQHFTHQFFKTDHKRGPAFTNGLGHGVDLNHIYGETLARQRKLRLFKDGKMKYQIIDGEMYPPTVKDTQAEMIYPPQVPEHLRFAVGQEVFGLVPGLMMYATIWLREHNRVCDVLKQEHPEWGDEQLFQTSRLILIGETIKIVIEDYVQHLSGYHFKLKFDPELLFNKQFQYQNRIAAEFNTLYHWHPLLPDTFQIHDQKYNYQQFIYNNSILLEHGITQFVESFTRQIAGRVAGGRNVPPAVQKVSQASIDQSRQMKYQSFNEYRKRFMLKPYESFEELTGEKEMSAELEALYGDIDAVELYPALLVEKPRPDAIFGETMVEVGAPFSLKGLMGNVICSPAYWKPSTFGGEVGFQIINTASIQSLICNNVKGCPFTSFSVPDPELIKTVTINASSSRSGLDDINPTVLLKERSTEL

[2] = tested on: HT-29 human colon tumor cells; experiment: Analysis of intracellular dATP pools in HT-29 cells; assay type: cell-based; details: 4 μM, HT-29, average
Method: (§1) The analysis of the intracellular dNTP concentrations was carried out according to the method of Garrett and Santi (Garrett, C.; Santi, D. V. A Rapid and Sensitive High-Pressure Liquid Chromatography Assay for Deoxyribonucleoside Triphosphates in Cell Extracts. Anal Biochem. 1979 Nov. 1; 99(2): 268-73.)
(§2) The action of hexahydroxystilbene (“M8”) on the intracellular dNTP concentrations in HL-60 cells was examined. The study was performed as described above. The cells were incubated with 6.25, 12.5 and 25 μM of hexahydroxystilbene, and then the dNTP pools were determined. […] The dATP concentrations dropped during treatment with 12.5 and 25 μM of hexahydroxystilbene to 27 and 41% of the starting values. The depletion of the dATP pools was especially impressive in the case of HT-29 human colon tumor cells; the dATP values dropped there as early as after treatment with 4 μM of the substance in an average of 1.5% of the starting values. […] The action of the substance can also be clarified by this impressive imbalance of the dNTP pools that are precursors of the DNA synthesis. The results of the experiment with HL-60 cells are plotted in FIG. 3.

HL-60 cells [3] = experiment: Cell cycle distribution by FACS in HL-60 cells; assay type: cell-based, human; details: 24 hours
Method: HL-60 cells were incubated in the presence of hexahydroxystilbene. After 24 hours, the cells were washed, centrifuged and fixed in alcohol. Then, […] and examined by means of FACS analysis. Then, the cell cycle phase distribution was calculated.

HL-60 cells [4] = experiment: Apoptosis induction, Hoechst 33258/propidium iodide double staining in HL-60 cells; assay type: cell-based, human; details: 24 hours
Method: Then, the cells were treated for one hour with Hoechst 33258 (HO, Sigma, St. Louis, Mo., USA) and propidium iodide (PI, Sigma, St. Louis, Mo., USA) (5 μg/ml and 2 μg/ml). Then, the cells were photographed by means of a fluorescence microscope, and the cells were divided morphologically into early apoptotic, late apoptotic and necrotic cells. […] The results are plotted in FIG. 4.

HL-60 cells [5] = experiment: Analysis of intracellular dNTP pools by HPLC in HL-60 cells; assay type: cell-based, human
Method: as §1, §2

[6] = HL-60, Table 3, 72 h, read-out: Growth inhibition (72 h) HL-60
[7] = HL-60, 1st determination series, 72 hours, read-out: IC50 (μM), inhibition of growth of HL-60 human promyelocyte leukemia cells
[8] = HL-60, read-out: IC50 (50% inhibition of cell growth), HL-60, 2nd determination series, 72 hours of incubation

T1 sequence (P23219 24-599): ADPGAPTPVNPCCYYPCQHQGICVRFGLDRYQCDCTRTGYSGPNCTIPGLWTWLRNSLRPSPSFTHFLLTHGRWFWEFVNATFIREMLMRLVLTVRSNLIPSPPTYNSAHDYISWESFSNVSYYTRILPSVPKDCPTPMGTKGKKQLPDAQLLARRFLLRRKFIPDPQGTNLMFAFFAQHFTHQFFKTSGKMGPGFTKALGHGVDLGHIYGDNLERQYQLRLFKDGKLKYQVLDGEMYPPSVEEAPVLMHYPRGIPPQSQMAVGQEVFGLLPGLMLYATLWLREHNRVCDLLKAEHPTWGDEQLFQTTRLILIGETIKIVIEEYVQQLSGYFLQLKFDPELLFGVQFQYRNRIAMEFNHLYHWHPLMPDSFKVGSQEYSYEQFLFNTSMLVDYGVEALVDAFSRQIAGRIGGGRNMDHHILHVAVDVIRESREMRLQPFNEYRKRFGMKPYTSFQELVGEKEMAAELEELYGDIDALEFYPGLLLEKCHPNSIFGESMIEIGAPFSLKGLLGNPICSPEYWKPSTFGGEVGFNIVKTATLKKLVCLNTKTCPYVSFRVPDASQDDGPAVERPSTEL

Structure (SMILES) | IC50 (DU-145) | IC50 [1, 6] | IC50 (LNCaP) | IC50 (PC-3) | IC50 [1, 7] | IC50 (COX 1) | IC50 (COX 2) | COX2/COX1 Ratio (COX 2) | also measured
COc1cc(C=Cc2cc(OC)cc(OC)c2)cc(OC)c1 [M1, 3,3′,5,5′-Tetramethoxystilbene] | 25 µM | > 100 µM | 21 µM | 35 µM | – | – | – | – | –
COc1cc(C=Cc2cc(OC)c(OC)c(OC)c2)cc(OC)c1 [M2, 3,3′,4,5,5′-Pentamethoxystilbene] | 68 µM | 25 µM | > 100 µM | 21 µM | 25 µM | 10 µM | 0.6 µM | 0.06 | –
COc1cc(C=Cc2cc(OC)c(OC)c(OC)c2)cc(OC)c1OC [M3, 3,3′,4,4′,5,5′-Hexamethoxystilbene] | 12.5 µM | > 100 µM | 37 µM | 5.5 µM | > 100 µM | 10 µM | 0.5 µM | 0.05 | –
COc1ccc(C=Cc2cc(OC)c(OC)c(OC)c2)cc1 [M4, 3,4,4′,5-Tetramethoxystilbene] | 0.4 µM | 20 µM | 0.4 µM | 3 µM | – | – | – | – | –
COc1cccc(C=Cc2cc(OC)cc(OC)c2)c1 [M5, 3,3′,5-Trimethoxystilbene] | 6 µM | 5 µM | 6.25 µM | 3 µM | – | – | – | – | –
COc1cc(C=Cc2ccc(OC)c(OC)c2)cc(OC)c1 [M5A, 3,3′,4′,5-Tetramethoxystilbene] | 30 µM | 25 µM | 6.25 µM | 35 µM | – | – | – | – | –
Oc1cc(O)cc(C=Cc2cc(O)cc(O)c2)c1 [M6, 3,3′,5,5′-Tetrahydroxystilbene] | 17 µM | 12.5 µM | 84 µM | 16 µM | 12.5 µM | 0.01 µM | < 0.001 µM | <0.1 | –
Oc1cc(O)cc(C=Cc2cc(O)c(O)c(O)c2)c1 [M7, 3,3′,4,5,5′-Pentahydroxystilbene] | 23 µM | 10 µM | 7.5 µM | 5 µM | 10 µM | 0.01 µM | 0.005 µM | 0.5 | –
Oc1cc(C=Cc2cc(O)c(O)c(O)c2)cc(O)c1O [M8, 3,3′,4,4′,5,5′-Hexahydroxystilbene] | 25 µM | 4 µM | 3.4 µM | 2.5 µM | 4 µM | 0.5 µM | 0.001 µM | – | dATP values, % of the starting values [2]: 1.5%; Cell cycle distribution, G2-M phase, in words (HL-60 cells [3]): a depletion of cells resulted in the G2-M phase; Cell cycle distribution, S phase, in words (HL-60 cells [3]): stopped the cells in S phase; IC50 [1, 8]: 6.25 µM; IC50 ([1]; HL-60, adding 50 or 100 μM of vitamin C, read-out: IC50 of growth inhibition, HL-60, with added vitamin C): 2 µM; Cells with induction of apoptosis (HL-60 cells [4]; 6.25 μM): 68.5%; Apoptosis induction compared with resveratrol, in words (HL-60 cells [4]): induced apoptosis in these cells in the case of significantly lower concentrations than resveratrol; dCTP pools, % of the control values (HL-60 cells [5]; 6.25 μM): 110%; dTTP pools, % of the starting values (HL-60 cells [5]; 6.25 μM): 84%; dATP concentrations, % of the starting values (HL-60 cells [5]; 12.5 μM): 27%; dCTP pools, % of the control values (HL-60 cells [5]; 12.5 μM): 137%; dTTP pools, % of the starting values (HL-60 cells [5]; 12.5 μM): 72%; dATP concentrations, % of the starting values (HL-60 cells [5]; 25 μM): 41%; dCTP pools, % of the control values (HL-60 cells [5]; 25 μM): 199%; dTTP pools, % of the starting values (HL-60 cells [5]; 25 μM): 27%
Oc1ccc(C=Cc2cc(O)c(O)c(O)c2)cc1 [M9, 3,4,4′,5-Tetrahydroxystilbene] | 30 µM | 9 µM | 9.5 µM | 8 µM | 9 µM | 5 µM | 0.01 µM | 0.002 | –
Oc1cc(O)cc(C=Cc2ccc(O)c(O)c2)c1 [M10, 3,3′,4′,5-Tetrahydroxystilbene] | 58 µM | 9 µM | 33 µM | 18 µM | 9 µM | 5 µM | 0.005 µM | – | –
Oc1ccc(C=Cc2cc(O)cc(O)c2)cc1 [Resveratrol, 3,4′,5-Trihydroxystilbene, reference compound] | 10 µM | 12 µM | 5 µM | 16 µM | 12 µM | – | – | – | IC50 [1, 8]: 12 µM
O=C1O[C@H]([C@@H](O)CO)C(O)=C1O [Vitamin C, reference compound] | – | – | – | – | – | – | – | – | Action on cell growth of HL-60, in words ([1]; 50 or 100 μM, alone): no action on the cell growth
